Experiments:
MCF7 = assay: Antiproliferative activity against human MCF7 cells assessed as cell growth inhibition incubated for 4 hrs by MTT assay; conditions: MCF7, 4 h
HepG2 [1] = assay: Antiproliferative activity against human HepG2 cells assessed as cell growth inhibition incubated for 4 hrs by MTT assay; conditions: HepG2, 4 h
Hepatocyte = assay: Cytotoxicity against rat hepatocytes assessed as reduction in cell growth for 4 hrs by MTT assay
HepG2 [2] = assay: Cell cycle arrest in human HepG2 cells assessed as accumulation at sub G1 phase at 5.4 uM incubated for 24 hrs by DNA flow cytometric assay (reference value: 1.53 +/- 0.21%); format: functional
HepG2 [3] = assay: Cell cycle arrest in human HepG2 cells assessed as accumulation at G1 phase at 5.4 uM incubated for 24 hrs by DNA flow cytometric assay (reference value: 66.40 +/- 3.21%); format: functional
HepG2 [4] = assay: Cell cycle arrest in human HepG2 cells assessed as accumulation at S phase at 5.4 uM incubated for 24 hrs by DNA flow cytometric assay (reference value: 19.52 +/- 1.55%); format: functional
HepG2 [5] = assay: Cell cycle arrest in human HepG2 cells assessed as accumulation at G2/M phase at 5.4 uM incubated for 24 hrs by DNA flow cytometric assay (reference value: 12.53 +/- 1.48%); format: functional
HepG2 [6] = assay: Induction of apoptosis in human HepG2 cells assessed as viable cells at 5.4 uM incubated for 24 hrs by annexinV-FITC/propidium iodide staining based flow cytometry (reference value: 92.54 +/- 1.64 %); format: functional; conditions: read-out: Activity
HepG2 [7] = assay: Induction of apoptosis in human HepG2 cells assessed as early apoptotic cells at 5.4 uM incubated for 24 hrs by annexinV-FITC/propidium iodide staining based flow cytometry (reference value: 7.22 +/- 0.64 %); format: functional
HepG2 [8] = assay: Induction of apoptosis in human HepG2 cells assessed as late apoptotic cells at 5.4 uM incubated for 24 hrs by annexinV-FITC/propidium iodide staining based flow cytometry (reference value: 0.13 +/- 0.01%); format: functional
HepG2 [9] = assay: Induction of apoptosis in human HepG2 cells assessed as necrotic cells at 5.4 uM incubated for 24 hrs by annexinV-FITC/propidium iodide staining based flow cytometry (reference value: 0.07 +/- 0.01 %); format: functional

Compound | IC50 (MCF7) [µM] | IC50 (HepG2 [1]) [µM] | other results
O=C(CSc1nc2ccccc2n2cnnc12)Nc1ccc(C(=O)NC2CCCCC2)cc1 | 69.2 | 64.8 | –
O=C(Cn1c(=O)c2nncn2c2ccccc21)Nc1ccc(C(=O)Nc2ccc(Cl)cn2)cc1 | 71.4 | 47.6 | –
Cc1cccc(C)c1NC(=O)c1ccc(NC(=O)Cn2c(=O)c3nncn3c3ccccc32)cc1 | 21.5 | 17.5 | –
O=C(CSc1nc2ccccc2n2cnnc12)Nc1ccc(C(=O)NNC(=O)c2ccc([N+](=O)[O-])cc2)cc1 | 72.7 | 52.4 | –
O=C(CSc1nc2ccccc2n2cnnc12)Nc1ccc(C(=O)NNc2ccccc2)cc1 | 59.3 | 37.8 | –
O=C(Cn1c(=O)c2nncn2c2ccccc21)Nc1ccc(C(=O)NC2CCCCC2)cc1 | 41.2 | 23.8 | –
Cc1cccc(NC(=O)c2ccc(NC(=O)CSc3nc4ccccc4n4cnnc34)cc2)c1 | 46.7 | 23.6 | –
O=C(Cn1c(=O)c2nncn2c2ccccc21)Nc1ccc(C(=O)Nc2ccccc2)cc1 | 68.3 | 57.5 | –
O=C(CSc1nc2ccccc2n2cnnc12)Nc1ccc(C(=O)Nc2ccc(Cl)cn2)cc1 | 12.2 | 8.3 | –
Cc1ccccc1NC(=O)c1ccc(NC(=O)CSc2nc3ccccc3n3cnnc23)cc1 | 38.2 | 31.8 | –
CNC(=O)c1cc(Oc2ccc(NC(=O)Nc3ccc(Cl)c(C(F)(F)F)c3)cc2)ccn1 [SORAFENIB] | – | 2.17 | IC50 (Hepatocyte): 16.6 µM
O=C(Cn1c(=O)c2nncn2c2ccccc21)Nc1ccc(C(=O)NNC(=O)c2ccccc2)cc1 | 23.7 | 15.4 | –
Cc1cccc(C)c1NC(=O)c1ccc(NC(=O)CSc2nc3ccccc3n3cnnc23)cc1 | 68.7 | 54.2 | –
O=C(CSc1nc2ccccc2n2cnnc12)Nc1ccc(C(=O)Nc2ccccc2)cc1 | 8.2 | 5.4 | IC50 (Hepatocyte): 31.3 µM; Activity (HepG2 [2]): 1.32%; Activity (HepG2 [3]): 42.55%; Activity (HepG2 [4]): 30.12%; Activity (HepG2 [5]): 25.99%; viability at 5.4 µM (HepG2 [6]): 69.4%; Activity (HepG2 [7]): 30.27%; Activity (HepG2 [8]): 0.22%; Activity (HepG2 [9]): 0.14%
O=C(Cn1c(=O)c2nncn2c2ccccc21)Nc1ccc(C(=O)NCc2ccccc2)cc1 | 9.7 | 7.9 | –
O=C(Cn1c(=O)c2nncn2c2ccccc21)Nc1ccc(C(=O)NNC(=O)c2ccc([N+](=O)[O-])cc2)cc1 | 31.1 | 19.7 | –
O=C(CSc1nc2ccccc2n2cnnc12)Nc1ccc(C(=O)Nc2ccccn2)cc1 | 54.7 | 51.5 | –
Cc1cccc(NC(=O)c2ccc(NC(=O)Cn3c(=O)c4nncn4c4ccccc43)cc2)c1 | 10.3 | 6.5 | –
O=C(CSc1nc2ccccc2n2cnnc12)Nc1ccc(C(=O)NNC(=O)c2ccccc2)cc1 | 57.1 | 41.9 | –
O=C(Cn1c(=O)c2nncn2c2ccccc21)Nc1ccc(C(=O)Nc2ccc([N+](=O)[O-])cc2)cc1 | 51.6 | 42.5 | –
O=C(CSc1nc2ccccc2n2cnnc12)Nc1ccc(C(=O)NCc2ccccc2)cc1 | 52.7 | 43.5 | –
O=C(CSc1nc2ccccc2n2cnnc12)Nc1ccc(C(=O)Nc2ccc([N+](=O)[O-])cc2)cc1 | 61.3 | 42.7 | –

Source: ChEMBL document CHEMBL4808252, “Identification of new [1,2,4]triazolo[4,3-a]quinoxalines as potent VEGFR-2 tyrosine kinase inhibitors: Design, synthesis, anticancer evaluation, and in silico studies” (Bioorg Med Chem, 2021)
